Source: patent US20040063612A1, “Neuroprotective agents” (priority 2002, published 2004)

Columns and labels:
[1] = test system: primary cortical neuron cultures; assay: Neuronal viability after oxidative stress (H2O2), crystal violet assay; assay type: cell-based, rat; details: pre-treatment one day prior to 40 mM H2O2
Experimental: Cell viability assays. […] Since the MTT assay measures both metabolic function (mitochondrial-based) and cell viability, a second method, the crystal violet assay, was used to assess cell density. For the crystal violet assay, the cells were rinsed in phosphate buffered saline (PBS) and stained for 10 minutes at room temperature with crystal violet solution (0.05% crystal violet, 2% formalin, 10% methanol). After extensive rinsing in tap water baths, the plates were dried and the dye eluted with 200 μl/well of PBS containing 1% SDS. The absorbance was measured at 595 nm using an automated ELISA reader.
High through-put screening with primary neuronal cell cultures. Primary neuronal cells were cultured in 96-well plates coated with collagen type IV or laminin.
Cerebral cortex tissue harvested from 16-18 day old rat fetuses (Sprague-Dawley) was incubated for 10 minutes in calcium-free and magnesium-free Hanks balanced salt solution (CMF-HBSS), followed by digestion in 0.25% trypsin/CMF-HBSS for 30 minutes at 37° C. […]
The cell viability was measured using the crystal violet assay one day after the oxidative injury. […]
Viability is expressed as percentage change relative to cultures treated only with the oxidant. […] Cell viability was measured using the crystal violet assay 1 day after the oxidative injury. […] Standard deviations calculated for 8 replicate cultures were <10%.

cerebral ischaemia = details: cited from earlier work

SMILES | increase in viability (in words) [1] | neuronal rescue (in words) [1] | infarct volume reductions (cerebral ischaemia)
c1ccc(Nc2ccccc2)cc1 [Diphenylamine, diphenylamine] | modest increase in viability | less pronounced neuronal rescue | –
[Mg+2] [Mg, magnesium] | – | – | 25-61%
